Molecules are shown by their SMILES. Activity calls are given as the source filed them. Where only a bound is given, the exact number is not on record here.

In assay [1] the target is Mitogen-activated protein kinase kinase kinase kinase 1 (Homo sapiens, UniProt Q92918).
The target of assay [2] is Structural maintenance of chromosomes protein 2 (Homo sapiens, UniProt O95347).
In assay [3] the target is T1, Dynamin-like GTPase OPA1, mitochondrial (Homo sapiens, UniProt O60313).
T1 sequence (O60313 whole entry): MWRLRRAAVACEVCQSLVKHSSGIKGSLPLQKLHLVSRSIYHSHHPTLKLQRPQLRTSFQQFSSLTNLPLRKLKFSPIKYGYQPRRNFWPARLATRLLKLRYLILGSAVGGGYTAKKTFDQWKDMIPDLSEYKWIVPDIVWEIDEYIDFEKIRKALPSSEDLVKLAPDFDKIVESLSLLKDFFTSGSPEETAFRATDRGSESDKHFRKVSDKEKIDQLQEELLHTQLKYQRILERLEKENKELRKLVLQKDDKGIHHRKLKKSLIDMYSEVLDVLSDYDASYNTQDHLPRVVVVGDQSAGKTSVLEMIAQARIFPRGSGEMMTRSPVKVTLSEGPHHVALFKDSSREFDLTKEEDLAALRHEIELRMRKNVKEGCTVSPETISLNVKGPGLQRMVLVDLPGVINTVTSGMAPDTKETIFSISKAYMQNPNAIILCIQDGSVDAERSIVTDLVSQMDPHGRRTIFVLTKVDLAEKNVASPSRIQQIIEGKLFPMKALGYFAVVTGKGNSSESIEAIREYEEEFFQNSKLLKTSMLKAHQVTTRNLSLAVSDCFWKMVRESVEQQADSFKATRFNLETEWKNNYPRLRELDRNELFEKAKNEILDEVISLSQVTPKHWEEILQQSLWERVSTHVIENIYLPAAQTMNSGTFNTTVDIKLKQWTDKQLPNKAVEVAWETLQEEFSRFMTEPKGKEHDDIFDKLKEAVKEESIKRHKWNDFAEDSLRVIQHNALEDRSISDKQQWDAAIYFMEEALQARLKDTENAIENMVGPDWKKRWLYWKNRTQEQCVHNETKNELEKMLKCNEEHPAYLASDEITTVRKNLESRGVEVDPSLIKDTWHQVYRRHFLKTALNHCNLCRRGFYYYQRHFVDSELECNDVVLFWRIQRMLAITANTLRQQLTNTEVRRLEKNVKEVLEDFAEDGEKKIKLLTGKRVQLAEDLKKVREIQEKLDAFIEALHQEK

Assay [4] has as its target T2, Very long-chain specific acyl-CoA dehydrogenase, mitochondrial (Homo sapiens, UniProt P49748).
T2 sequence (P49748 whole entry): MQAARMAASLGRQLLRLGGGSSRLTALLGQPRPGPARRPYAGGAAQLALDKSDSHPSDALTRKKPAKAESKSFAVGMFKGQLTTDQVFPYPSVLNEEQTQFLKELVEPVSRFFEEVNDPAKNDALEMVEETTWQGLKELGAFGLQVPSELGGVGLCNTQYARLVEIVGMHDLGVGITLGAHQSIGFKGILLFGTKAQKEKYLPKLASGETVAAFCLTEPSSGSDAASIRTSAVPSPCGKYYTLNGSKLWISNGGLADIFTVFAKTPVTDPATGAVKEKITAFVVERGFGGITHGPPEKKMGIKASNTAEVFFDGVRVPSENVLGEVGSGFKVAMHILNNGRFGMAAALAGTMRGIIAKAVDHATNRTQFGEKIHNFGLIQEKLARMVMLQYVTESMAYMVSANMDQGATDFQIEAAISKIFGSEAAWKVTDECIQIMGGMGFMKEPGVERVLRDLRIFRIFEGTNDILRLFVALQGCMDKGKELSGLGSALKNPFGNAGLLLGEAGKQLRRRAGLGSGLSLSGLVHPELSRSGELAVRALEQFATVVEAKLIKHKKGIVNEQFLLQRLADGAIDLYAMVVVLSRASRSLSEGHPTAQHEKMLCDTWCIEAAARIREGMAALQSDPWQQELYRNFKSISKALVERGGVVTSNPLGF

In assay [5] the target is Non-receptor tyrosine-protein kinase TYK2 (Homo sapiens, UniProt P29597).
In assay [6] the target is T3, Serine/threonine-protein kinase NLK (Homo sapiens, UniProt Q9UBE8).
T3 sequence (Q9UBE8 whole entry): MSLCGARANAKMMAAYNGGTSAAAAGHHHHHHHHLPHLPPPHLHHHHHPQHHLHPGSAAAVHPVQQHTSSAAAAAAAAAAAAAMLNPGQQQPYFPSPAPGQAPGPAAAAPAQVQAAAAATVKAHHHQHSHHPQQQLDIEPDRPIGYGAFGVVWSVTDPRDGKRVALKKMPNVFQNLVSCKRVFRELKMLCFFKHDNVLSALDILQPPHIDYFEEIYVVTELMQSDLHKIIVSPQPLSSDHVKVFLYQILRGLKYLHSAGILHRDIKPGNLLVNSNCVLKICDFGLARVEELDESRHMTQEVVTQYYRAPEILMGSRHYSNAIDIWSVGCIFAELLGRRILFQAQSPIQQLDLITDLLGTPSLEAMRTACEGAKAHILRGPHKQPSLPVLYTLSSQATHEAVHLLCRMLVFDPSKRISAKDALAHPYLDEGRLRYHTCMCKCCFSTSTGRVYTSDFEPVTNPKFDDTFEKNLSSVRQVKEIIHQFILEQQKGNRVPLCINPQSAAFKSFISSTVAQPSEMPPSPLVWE

The target of assay [7] is T4, Activin receptor type-1 (Homo sapiens, UniProt Q04771).
T4 sequence (Q04771 whole entry): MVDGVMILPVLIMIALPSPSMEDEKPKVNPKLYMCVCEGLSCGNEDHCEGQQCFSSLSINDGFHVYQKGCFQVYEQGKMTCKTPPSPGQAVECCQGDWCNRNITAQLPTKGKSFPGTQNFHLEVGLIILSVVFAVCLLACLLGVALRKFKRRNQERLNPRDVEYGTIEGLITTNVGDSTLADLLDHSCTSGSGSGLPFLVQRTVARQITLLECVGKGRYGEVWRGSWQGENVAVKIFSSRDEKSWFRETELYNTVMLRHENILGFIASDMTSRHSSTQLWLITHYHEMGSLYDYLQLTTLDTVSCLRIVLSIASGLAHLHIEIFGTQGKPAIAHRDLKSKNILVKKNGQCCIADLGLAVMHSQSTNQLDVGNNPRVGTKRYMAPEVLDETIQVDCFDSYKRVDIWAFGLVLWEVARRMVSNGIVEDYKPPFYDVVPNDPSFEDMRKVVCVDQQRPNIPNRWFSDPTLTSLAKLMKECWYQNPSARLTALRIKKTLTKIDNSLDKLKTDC
Note: in the data inactive means no Kd found up to 30 µM.

Structural maintenance of chromosomes protein 2, sequence (O95347 whole entry): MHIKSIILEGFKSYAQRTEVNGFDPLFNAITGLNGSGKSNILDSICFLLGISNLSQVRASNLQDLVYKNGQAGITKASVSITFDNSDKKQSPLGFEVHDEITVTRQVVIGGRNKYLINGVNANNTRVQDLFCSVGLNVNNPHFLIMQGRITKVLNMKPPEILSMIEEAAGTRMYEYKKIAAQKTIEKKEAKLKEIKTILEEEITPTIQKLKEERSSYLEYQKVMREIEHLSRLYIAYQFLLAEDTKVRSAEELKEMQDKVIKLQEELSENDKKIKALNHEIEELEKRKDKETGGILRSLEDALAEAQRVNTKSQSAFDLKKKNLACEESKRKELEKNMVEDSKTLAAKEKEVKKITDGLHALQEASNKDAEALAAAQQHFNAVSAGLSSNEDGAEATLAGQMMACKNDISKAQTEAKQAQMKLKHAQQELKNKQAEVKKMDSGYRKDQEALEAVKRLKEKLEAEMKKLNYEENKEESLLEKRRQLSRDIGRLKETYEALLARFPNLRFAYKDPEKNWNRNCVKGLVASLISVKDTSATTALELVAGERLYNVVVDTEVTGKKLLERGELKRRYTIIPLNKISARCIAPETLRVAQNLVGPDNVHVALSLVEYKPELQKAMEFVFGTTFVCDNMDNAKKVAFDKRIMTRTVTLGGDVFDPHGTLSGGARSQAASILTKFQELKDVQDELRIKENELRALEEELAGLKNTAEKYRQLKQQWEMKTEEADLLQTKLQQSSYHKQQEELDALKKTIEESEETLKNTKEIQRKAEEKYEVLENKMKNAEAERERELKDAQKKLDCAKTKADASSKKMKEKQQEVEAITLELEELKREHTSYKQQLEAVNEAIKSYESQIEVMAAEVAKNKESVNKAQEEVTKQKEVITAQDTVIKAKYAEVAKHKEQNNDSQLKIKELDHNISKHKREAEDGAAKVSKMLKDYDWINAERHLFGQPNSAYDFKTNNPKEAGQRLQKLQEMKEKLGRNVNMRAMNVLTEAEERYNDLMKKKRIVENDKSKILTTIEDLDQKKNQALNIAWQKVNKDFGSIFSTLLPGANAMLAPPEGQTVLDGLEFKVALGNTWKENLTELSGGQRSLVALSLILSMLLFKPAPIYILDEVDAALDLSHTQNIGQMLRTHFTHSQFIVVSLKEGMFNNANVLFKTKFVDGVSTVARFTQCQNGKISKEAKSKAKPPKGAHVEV
Non-receptor tyrosine-protein kinase TYK2, sequence (P29597 whole entry): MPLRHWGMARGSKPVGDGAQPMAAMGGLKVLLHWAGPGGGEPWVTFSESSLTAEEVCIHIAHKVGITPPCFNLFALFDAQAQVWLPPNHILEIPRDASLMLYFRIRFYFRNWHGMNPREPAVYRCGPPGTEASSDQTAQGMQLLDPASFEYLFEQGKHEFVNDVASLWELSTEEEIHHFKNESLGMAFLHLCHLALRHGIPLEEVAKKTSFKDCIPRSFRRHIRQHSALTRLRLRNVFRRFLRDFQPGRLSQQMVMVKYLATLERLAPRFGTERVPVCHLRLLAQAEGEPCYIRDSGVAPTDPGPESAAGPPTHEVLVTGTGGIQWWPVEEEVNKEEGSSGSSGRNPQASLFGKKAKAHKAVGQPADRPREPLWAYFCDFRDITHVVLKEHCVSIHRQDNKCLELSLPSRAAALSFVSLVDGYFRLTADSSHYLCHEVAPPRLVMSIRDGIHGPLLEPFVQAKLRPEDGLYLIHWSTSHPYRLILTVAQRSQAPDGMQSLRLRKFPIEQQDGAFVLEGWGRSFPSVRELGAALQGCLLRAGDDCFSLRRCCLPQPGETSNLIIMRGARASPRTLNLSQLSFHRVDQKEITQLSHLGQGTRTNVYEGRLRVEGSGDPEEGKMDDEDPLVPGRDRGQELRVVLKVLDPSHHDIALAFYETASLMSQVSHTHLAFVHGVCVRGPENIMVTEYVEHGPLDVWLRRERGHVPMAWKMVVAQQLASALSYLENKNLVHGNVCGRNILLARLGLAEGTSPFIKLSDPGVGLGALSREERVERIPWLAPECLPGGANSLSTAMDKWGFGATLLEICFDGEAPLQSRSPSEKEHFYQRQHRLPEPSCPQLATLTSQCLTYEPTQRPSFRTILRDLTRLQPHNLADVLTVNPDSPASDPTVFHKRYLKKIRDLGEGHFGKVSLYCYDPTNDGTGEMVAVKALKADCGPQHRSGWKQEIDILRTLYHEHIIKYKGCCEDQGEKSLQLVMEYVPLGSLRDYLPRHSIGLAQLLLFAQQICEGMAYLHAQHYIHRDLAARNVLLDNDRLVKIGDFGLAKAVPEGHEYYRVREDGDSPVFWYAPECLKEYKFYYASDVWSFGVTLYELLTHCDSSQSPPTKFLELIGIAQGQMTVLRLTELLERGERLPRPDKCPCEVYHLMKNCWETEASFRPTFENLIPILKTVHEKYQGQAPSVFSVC
Mitogen-activated protein kinase kinase kinase kinase 1, sequence (Q92918 whole entry): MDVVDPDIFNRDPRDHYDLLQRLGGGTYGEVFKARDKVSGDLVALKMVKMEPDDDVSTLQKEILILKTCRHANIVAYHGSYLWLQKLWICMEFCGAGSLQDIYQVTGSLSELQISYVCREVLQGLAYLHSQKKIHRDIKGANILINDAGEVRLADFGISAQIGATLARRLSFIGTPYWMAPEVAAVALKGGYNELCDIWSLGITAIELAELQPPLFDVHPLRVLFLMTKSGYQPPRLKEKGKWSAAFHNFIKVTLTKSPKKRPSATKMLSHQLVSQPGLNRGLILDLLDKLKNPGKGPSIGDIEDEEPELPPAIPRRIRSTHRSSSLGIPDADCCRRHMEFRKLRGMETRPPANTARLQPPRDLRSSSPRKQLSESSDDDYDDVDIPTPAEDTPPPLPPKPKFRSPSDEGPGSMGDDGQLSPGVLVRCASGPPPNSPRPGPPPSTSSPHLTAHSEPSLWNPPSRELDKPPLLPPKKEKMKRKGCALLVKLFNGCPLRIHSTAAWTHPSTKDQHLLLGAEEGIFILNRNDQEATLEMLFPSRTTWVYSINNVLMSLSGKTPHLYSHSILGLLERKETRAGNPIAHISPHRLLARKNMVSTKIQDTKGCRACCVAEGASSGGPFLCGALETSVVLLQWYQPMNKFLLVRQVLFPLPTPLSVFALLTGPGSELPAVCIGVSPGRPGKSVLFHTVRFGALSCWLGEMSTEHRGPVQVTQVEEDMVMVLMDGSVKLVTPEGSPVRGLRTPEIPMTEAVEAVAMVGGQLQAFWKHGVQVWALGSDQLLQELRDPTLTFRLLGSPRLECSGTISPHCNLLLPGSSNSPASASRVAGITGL

For `C[C@@H](Oc1cc(C(=O)Nc2ccc(C(=O)N3CCN(C)CC3)cc2)nnc1N)c1c(Cl)ccc(F)c1Cl`, the Kd in assay [1], in assay [2], in assay [3], in assay [4], in assay [5] and in assay [6] was > 30 µM (inactive) each time. The Kd in assay [7] was > 30 µM (inactive).
Take `C[C@H]1CNCCCN1S(=O)(=O)c1cccc2cncc(F)c12`: the Kd in assay [1], in assay [2], in assay [3], in assay [4], in assay [5] and in assay [6] was > 30 µM (inactive) in each case. For the same compound, in assay [7], the Kd was > 30 µM (inactive).
`CCNC(=O)C#Cc1ccc2c(c1)NC(=O)/C2=C(\Nc1ccc(CN(C)C)cc1)c1ccccc1`: the Kd in assay [1] is 0.875 µM (active); in assay [2], > 30 µM (inactive); in assay [3] it was > 30 µM (inactive); in assay [4], > 30 µM (inactive); in assay [5], > 30 µM (inactive); in assay [6], > 30 µM (inactive). Also, the Kd in assay [7] was > 30 µM (inactive).
With `C=CC(=O)N1CCC[C@H](n2c(=O)n(-c3ccc(Oc4ccccc4)cc3)c3c(N)ncnc32)C1`, the Kd in assay [1], in assay [2], in assay [3], in assay [4], in assay [5] and in assay [6] was > 30 µM (inactive) each time. The Kd in assay [7] was > 30 µM (inactive).
As to `Cc1nc2cc(-c3nn(C(C)C)c4ncnc(N)c34)ccc2o1`, the Kd was > 30 µM (inactive) in assay [1]; > 30 µM (inactive) in assay [2]; > 30 µM (inactive) in assay [3]; > 30 µM (inactive) in assay [4]; > 30 µM (inactive) in assay [5]; 0.449 µM (active) in assay [6]. Also, in assay [7], the Kd was 0.04 µM (active).
In the case of `COCc1c(-c2ccc(NC(=O)Nc3cc(C(F)(F)F)ccc3F)c(F)c2)c2c(N)ncnn2c1CN1CCOCC1`, the Kd in assay [1], in assay [2], in assay [3], in assay [4], in assay [5] and in assay [6] was > 30 µM (inactive) each time. In addition, the Kd in assay [7] is > 30 µM (inactive).
For `Nc1ncnc2c1c(-c1cccc(OCc3ccccc3)c1)cn2[C@H]1C[C@@H](CN2CCC2)C1` [AEW-541], the Kd in assay [1], in assay [2], in assay [3], in assay [4], in assay [5] and in assay [6] was > 30 µM (inactive) in each case. The dissociation constant Kd in assay [7] is 1.2 µM (active).
In the case of `Cc1csc(-c2nnc(Nc3ccc(Oc4ncccc4-c4ccnc(N)n4)cc3)c3ccccc23)c1` [AMG-900], the Kd in assay [1], in assay [2], in assay [3], in assay [4], in assay [5] and in assay [6] was > 30 µM (inactive) throughout. Also, the Kd in assay [7] is > 30 µM (inactive).
On to `C=CC(=O)Nc1cc2c(Nc3ccc(F)c(Cl)c3)ncnc2cc1C#CC(C)(C)N1CCN(C)CC1` [AV-412 FREE BASE], for which the Kd in assay [1], in assay [2], in assay [3], in assay [4], in assay [5] and in assay [6] was > 30 µM (inactive) each time. Also, the Kd in assay [7] was > 30 µM (inactive).
As for `COc1cc([C@@H]2c3cc4c(cc3[C@H](O)[C@H]3COC(=O)[C@@H]23)OCO4)cc(OC)c1OC` [AXL-1717], the Kd in assay [1], in assay [2], in assay [3], in assay [4], in assay [5] and in assay [6] was > 30 µM (inactive) each time. The Kd in assay [7] is > 30 µM (inactive).
As for `Cc1cc(C(=O)NOCCO)c(Nc2ccc(I)cc2F)n(C)c1=O` [AZD-8330], the Kd in assay [1], in assay [2], in assay [3], in assay [4], in assay [5] and in assay [6] was > 30 µM (inactive) throughout. Moreover, the Kd in assay [7] is > 30 µM (inactive).
As for `Cn1cnc2c(F)c(Nc3ccc(Br)cc3F)c(C(=O)NOCCO)cc21` [BINIMETINIB], the Kd in assay [1], in assay [2], in assay [3], in assay [4], in assay [5] and in assay [6] was > 30 µM (inactive) in each case. For the same compound, in assay [7], the Kd is > 30 µM (inactive).
As to `CCn1c(C(=O)N(C2CC2)C2CC2)cc2c3c(ncn3C)c(Nc3cc(C)n(C)n3)nc21` [BMS-911543], the Kd in assay [1], in assay [2], in assay [3], in assay [4], in assay [5] and in assay [6] was > 30 µM (inactive) each time. For the same compound, the Kd in assay [7] is > 30 µM (inactive).
For `COc1cc2ncnc(Oc3cccc(NC(=O)Nc4cc(C(C)(C)C(F)(F)F)on4)c3)c2cc1OC` [CEP-32496], the Kd in assay [1], in assay [2], in assay [3], in assay [4], in assay [5] and in assay [6] was > 30 µM (inactive) each time. Further, the Kd in assay [7] was > 30 µM (inactive).

The Kd is the free concentration of one partner at which half of the binding sites on the other are occupied at equilibrium, for simple one-to-one binding.

These data come from ChEMBL document CHEMBL3991601, “The target landscape of clinical kinase drugs” (Science, 2017).
